# Key:
# [1] = Particle size test of crystal form I (micrometer particle size analyzer MS3000, dry method); assay type: physicochemical; conditions: particle size analysis
# From the text: The particle size conditions of the crystal form I of the compound of formula I used in the present disclosure are: name/model of detection instrument: micrometer particle size analyzer/MS3000; test method: dry method; sample injection rate: 50%; air pressure: 2.5 bar; slit width: 2.0 mm; refractive index: 1.52; absorption rate: 0.1; shade degree: 0.5% to 6%; background measurement time: 10 s; and sample measurement time: 10 s. The crystal obtained in Example 1 was subject to a particle size test in accordance with the above conditions.
# [2] = Hygroscopicity test of crystal form I (dynamic moisture adsorption instrument, DVS); assay type: physicochemical; conditions: for Weight gain percentage at 80% relative humidity: DVS, about 28 mg of crystal
# Protocol: About 28 mg of the crystal obtained in Example 1 was taken. The hygroscopicity of the crystal was determined with dynamic moisture adsorption instrument in accordance with the above conditions. The weight gain of crystal form I was within 0.2% at 80% relative humidity.
smiles,measurement,setting,value
Cc1cc(OC[P@@]2(=O)OCC[C@@H](c3cccc(Cl)c3)O2)cc(C)c1Cc1ccc(O)c(C(C)C)c1 [Example 1],Specific Area,[1],807.1 m^2/kg
same,particle size Dv10,[1]; Dv 10,6.41 µm
same,particle size Dv50,[1]; Dv 50,20.3 µm
same,particle size Dv90,[1]; Dv 90,48.2 µm
same,particle size Dv95,[1]; Dv 95,59.1 µm
same,Weight gain percentage at 80% relative humidity,[2],0.1213%
same,Weight gain percentage at 80% relative humidity,[2]; listed as crystal form I,≤ 0.2%
same,Hygroscopicity class,"[2]; guidance principle of drug hygroscopicity, Appendix XIXJ of the Chinese Pharmacopoeia 2015",no or nearly no hygroscopicity

# Source: US12673964B2, “Crystal of thyroid hormone B receptor agonist, process for preparing the same and use thereof” (GANNEX PHARMA CO., LTD., priority 2020, dated 2026)
